Data from PMC8484505 (Cell Reports Medicine, 2021).

Tests used:
[1] = Population PK analysis of oral semaglutide in PIONEER 1, 2, 3, 5, 8 and 9; type: in vivo, human
[2] = stated in discussion, no reference given; cited from earlier work
[3] = SUSTAIN-6, T2D population with high CV risk; cited from earlier work

## CC[C@H](C)[C@H](NC(=O)[C@H](Cc1ccccc1)NC(=O)[C@H](CCC(=O)O)NC(=O)[C@H](CCCCNC(=O)COCCOCCNC(=O)COCCOCCNC(=O)CC[C@H](NC(=O)CCCCCCCCCCCCCCCCC(=O)O)C(=O)O)NC(=O)[C@H](C)NC(=O)[C@H](C)NC(=O)[C@H](CCC(N)=O)NC(=O)CNC(=O)[C@H](CCC(=O)O)NC(=O)[C@H](CC(C)C)NC(=O)[C@H](Cc1ccc(O)cc1)NC(=O)[C@H](CO)NC(=O)[C@H](CO)NC(=O)[C@@H](NC(=O)[C@H](CC(=O)O)NC(=O)[C@H](CO)NC(=O)[C@@H](NC(=O)[C@H](Cc1ccccc1)NC(=O)[C@@H](NC(=O)CNC(=O)[C@H](CCC(=O)O)NC(=O)C(C)(C)NC(=O)[C@@H](N)Cc1cnc[nH]1)[C@@H](C)O)[C@@H](C)O)C(C)C)C(=O)N[C@@H](C)C(=O)N[C@@H](Cc1c[nH]c2ccccc12)C(=O)N[C@@H](CC(C)C)C(=O)N[C@H](C(=O)N[C@@H](CCCNC(=N)N)C(=O)NCC(=O)N[C@@H](CCCNC(=N)N)C(=O)NCC(=O)O)C(C)C [oral semaglutide, semaglutide]
[1]; 34 patients with gastric ulcer, non-significant
  lower exposure compared to subjects not reporting GI disease: 11%
[1]; 174 subjects with chronic gastritis
  exposure compared to subjects not reporting GI disease: No effect differences
[1]; oral semaglutide 14 mg
  fraction of subjects with exposure levels considered below the therapeutic range: 3%

## semaglutide
[2]
  half-life: ~1 week

## semaglutide [s.c. semaglutide]
[3]
  reduction in the hazard ratio of major adverse cardiovascular events (MACE): 26%
